What is called pEC50 is −log10 of the EC50, conventionally taken in molar units. Low values mean a high EC50, high ones a low EC50.

pEC50: −log10 of the molar value.

Test [1] concerns the target T1, Alpha-1A adrenergic receptor (Homo sapiens, UniProt P35348).
T1 sequence (P35348 whole entry): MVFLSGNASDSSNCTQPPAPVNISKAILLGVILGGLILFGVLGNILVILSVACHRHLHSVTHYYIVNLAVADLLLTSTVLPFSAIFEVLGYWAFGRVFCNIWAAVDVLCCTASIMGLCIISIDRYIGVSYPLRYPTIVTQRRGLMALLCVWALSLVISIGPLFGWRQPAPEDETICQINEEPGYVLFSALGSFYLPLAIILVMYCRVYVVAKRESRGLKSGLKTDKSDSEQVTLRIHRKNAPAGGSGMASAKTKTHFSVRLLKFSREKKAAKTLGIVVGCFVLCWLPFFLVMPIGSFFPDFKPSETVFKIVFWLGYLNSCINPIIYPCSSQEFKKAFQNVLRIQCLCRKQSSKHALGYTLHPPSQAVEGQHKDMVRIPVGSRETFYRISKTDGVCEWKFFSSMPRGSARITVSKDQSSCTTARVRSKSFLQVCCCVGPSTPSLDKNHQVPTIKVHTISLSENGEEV
The test can be described thus: Alpha-1 adrenergic receptor agonist activity in rabbit ear artery. Particulars: target entry is the homologue from another species. It counts as functional, tissue-based, Oryctolagus cuniculus.

The species entered for the next test is Oryctolagus cuniculus. The test can be described thus: Phentolamine dissociation constant was evaluated in rabbit ear artery. It counts as functional.

In test [1], `COc1ccc(OC)c2c1CCNC2` showed a pEC50 below 4.52. Same read-out and setting: the same measure for `COc1ccc(OC)c2c1CC(N)C2`: 4.52. With `COc1ccc(OC)c2c1CCCC(N)C2` (centres undefined), the pEC50 in test [1] was 5.28. In the test filed under Oryctolagus cuniculus, this molecule yielded a Kb of 0.011 µM.

The molecule `COc1ccc(OC)c2c1CC1C2[C@@H]1N` (some centres undefined) had a pEC50 in test [1] of 6.47. In addition, the Kb in the test filed under Oryctolagus cuniculus was 0.0084 µM. `COc1ccc(OC)c2c1C1CCC2[C@@H](N)C1` (some centres undefined) gave a pEC50 in test [1] of 4.52. In test [1], `COc1ccc(OC)c2c1C1CCC2[C@H](N)C1` (some centres undefined) showed a pEC50 of 4.52.

In the case of `COc1ccc(OC)c2c1CC[C@H]1NCCCC21` (some centres undefined), in test [1], the negative logarithm of the EC50 (pEC50) is 6.77. Also, the Kb in the test filed under Oryctolagus cuniculus came out at 0.011 µM. Taken in the same sequence, the figures for `COc1ccc(OC)c(CCN)c1` were 4.96 and 0.054 µM. Regarding `NC1CCc2ccccc2C1` (centres undefined), the pEC50 in test [1] is below 4.52. For the molecule `COc1ccc(OC)c2c1CCC(N)C2` (centres undefined), in test [1], the negative logarithm of the EC50 (pEC50) is 6.92. Moreover, in the test filed under Oryctolagus cuniculus, the Kb was found to be 0.006 µM.

In test [1], `COc1ccc(OC)c2c1CC[C@@H]1NCCCC21` (some centres undefined) had a pEC50 of 6.70. In the test listed under Oryctolagus cuniculus, this molecule gave a Kb of 0.0147 µM. For the molecule `COc1ccc(OC)c(C(O)C(C)N)c1` (centres undefined) [METHOXAMINE], the pEC50 in test [1] was 6.14. Also, the Kb in the test listed under Oryctolagus cuniculus was 0.0098 µM.

Source of the values: ChEMBL document CHEMBL1121757, “Alpha-adrenergic agents. 1. Direct-acting alpha 1 agonists related to methoxamine” (J Med Chem, 1981).
